# Values joined by “and” are separate entries in the source; they are usually repeats but may differ in a detail not shown here. Equal values may be shown once.
# What was measured:
# human TRPA1 = human TRPA1 (Homo sapiens (Human), UniProt O75762); assay: In vitro inhibition of human TRPA1, whole cell patch configuration; assay type: cell-based; conditions: current activation 10 μM AITC, tested concentrations 320 pM to 3.2 μM, read-out: hTRPA1 IC50
# Outline: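 Whole-cell patch clamp, bath 150 mM NaCl, 10 mM HEPES, 1 mM EGTA, 3 mM MgCl2, pH 7.4 (sometimes 2 mM CaCl2, 1 mM MgCl2). Currents recorded continuously at −60 mV or by 400 ms ramps from −40 mV holding every 4 s; inward/outward currents taken at −80/80 mV, with controlled-temperature focal perfusion.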
# [1] = system: CFA-induced cold hypersensitivity of the hind paw; assay: CFA-induced pain test, cold hypersensitivity (cold plate paw withdrawal latency); assay type: in vivo; conditions: cold plate 1° C., solution in 4% DMSO, 5% Tween-80; for Average PWL Post-Treatment / PWL Change: 1-2 hour pre-treatment; for Average PWL Post-CFA: baseline before dosing
# Method: Embodiments of the invention may be efficacious in the treatment of inflammatory pain. Compounds of the invention were tested by the CFA-induced pain test method. Compounds were formulated as solutions in water with various solvents and excipients including dimethyl sulfoxide (DMSO), polyethylene glycol (15)-hydroxystearate (Solutol®, Sigma-Aldrich), caprylocaproyl macrogol-8 glyceride (Labrasol®, Sigma-Aldrich), polysorbate-80 (Tween®-80, Sigma-Aldrich), and polyoxyl 35 castor oil (Cremophor® EL, BASF Corp.); or suspensions in methylcellulose as indicated in Table 3 for oral delivery. Briefly, the hind paw was sensitized to cold temperature (allodynic) by administering 0.1 mL of Complete Freund's Adjuvant (CFA) to the right hind paw. Three days later, the time taken for the animal to lift its CFA-injected paw was recorded compared to its un-injected normal left hind paw. […] To avoid tissue damage the maximum cut-off time was 5 minutes. Animals that were allodynic (average PWL to the first three pain behaviors <150 seconds for the CFA-injected hind paw: ˜≥50% difference between the normal and CFA-injected paw) were included in the study and subsequently randomized across treatment groups. The following day, the animals were dosed orally under blinded conditions. Following the 1-2 hour pre-treatment time, the post-dose PWL readings were again taken. The efficacy of the drug treatment was assessed by comparing the PWL in the drug treatment animals to those animals that receive the vehicle. P values, when indicated, indicate significance compared Vehicle.
# [2] = system: formalin-induced pain behaviors in the rat; assay: Formalin-induced pain test (formalin model), duration of pain behaviors; assay type: in vivo
# Outline: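 Rats dosed orally with vehicle or compound (solutions with DMSO, Solutol, Labrasol, Tween-80, Cremophor EL, or methylcellulose suspensions) one hour before intraplantar injection of 50 μL 3% formalin into hind paw. Duration of pain behaviors counted by blinded observer; Phase I covers 0-5 min; comparison to vehicle.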
# [3] = 1 mg/kg PO, 25% Cremophor EL, and 66% water
# [4] = 3 mg/kg PO, 25% Cremophor EL, and 66% water
# [5] = 10 mg/kg PO, 25% Cremophor EL, and 66% water
# [6] = 1 mg/kg PO one hour prior to formalin, solution in 4% DMSO, 5% Tween-80, 25% Cremophor EL, 66% water
# [7] = 1 mg/kg PO one hour prior to formalin, solution in 8% DMSO and 92% Labrasol
# [8] = 3 mg/kg PO one hour prior to formalin, solution in 4% DMSO, 5% Tween-80, 25% Cremophor EL, 66% water
# [9] = 3 mg/kg PO one hour prior to formalin, solution in 8% DMSO and 92% Labrasol
# [10] = 10 mg/kg PO one hour prior to formalin, solution in 4% DMSO, 5% Tween-80, 25% Cremophor EL, 66% water
# [11] = 10 mg/kg PO one hour prior to formalin, solution in 8% DMSO and 92% Labrasol
# [12] = 30 mg/kg PO one hour prior to formalin, solution in 8% DMSO and 92% Labrasol
# [13] = 0.3 mg/kg PO, 20% Cremophor EL, and 71% water
# [14] = 1 mg/kg PO, 20% Cremophor EL, and 71% water
# [15] = 3 mg/kg PO, 20% Cremophor EL, and 71% water
# [16] = 1 mg/kg PO one hour prior to formalin, solution in 4% DMSO, 5% Tween-80, 20% Cremophor EL, 71% water
# [17] = 3 mg/kg PO one hour prior to formalin, solution in 4% DMSO, 5% Tween-80, 20% Cremophor EL, 71% water
# [18] = 10 mg/kg PO one hour prior to formalin, solution in 4% DMSO, 5% Tween-80, 20% Cremophor EL, 71% water
# human TRPA1, sequence (O75762 whole entry, the tested form may be a part): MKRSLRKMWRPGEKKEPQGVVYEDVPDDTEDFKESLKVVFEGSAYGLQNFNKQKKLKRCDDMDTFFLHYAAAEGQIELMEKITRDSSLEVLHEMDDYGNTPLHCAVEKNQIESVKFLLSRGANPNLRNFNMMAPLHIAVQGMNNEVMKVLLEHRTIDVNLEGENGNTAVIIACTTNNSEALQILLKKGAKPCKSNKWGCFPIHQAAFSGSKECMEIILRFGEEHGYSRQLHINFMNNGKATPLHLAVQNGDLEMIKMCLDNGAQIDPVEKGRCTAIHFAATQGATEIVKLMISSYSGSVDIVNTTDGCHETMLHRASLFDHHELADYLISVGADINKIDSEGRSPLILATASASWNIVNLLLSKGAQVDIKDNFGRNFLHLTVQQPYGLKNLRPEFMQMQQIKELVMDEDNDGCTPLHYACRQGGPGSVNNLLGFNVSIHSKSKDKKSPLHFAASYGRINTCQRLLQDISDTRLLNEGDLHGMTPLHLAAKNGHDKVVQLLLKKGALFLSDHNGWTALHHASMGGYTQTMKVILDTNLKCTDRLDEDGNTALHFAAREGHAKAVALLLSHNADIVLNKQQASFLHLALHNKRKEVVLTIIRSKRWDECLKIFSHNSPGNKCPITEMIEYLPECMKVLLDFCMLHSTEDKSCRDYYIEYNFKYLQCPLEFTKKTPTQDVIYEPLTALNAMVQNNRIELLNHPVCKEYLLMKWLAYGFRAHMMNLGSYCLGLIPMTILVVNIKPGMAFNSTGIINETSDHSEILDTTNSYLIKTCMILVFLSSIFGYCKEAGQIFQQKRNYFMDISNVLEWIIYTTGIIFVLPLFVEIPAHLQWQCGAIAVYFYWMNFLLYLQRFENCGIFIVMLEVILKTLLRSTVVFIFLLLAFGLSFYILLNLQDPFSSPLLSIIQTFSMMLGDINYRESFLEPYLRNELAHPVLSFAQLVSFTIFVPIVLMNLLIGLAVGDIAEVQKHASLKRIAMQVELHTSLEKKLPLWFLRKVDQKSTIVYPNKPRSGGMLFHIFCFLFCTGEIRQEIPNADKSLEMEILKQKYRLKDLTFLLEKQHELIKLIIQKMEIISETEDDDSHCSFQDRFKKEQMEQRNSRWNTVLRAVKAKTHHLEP
compound,measurement,setting,value
"CC(=O)Cn1c(=O)c2c(ncn2[C@@H](C)C(=O)Nc2csc(-c3cnc(N4CC5CC5C4)nc3)n2)n(C)c1=O (stereo partly drawn) [Compound 153, (2S)—N-(2-(2-(3-azabicyclo[3.1.0]hexan-3-yl)pyrimidin-5-yl)thiazol-4-yl)-2-(3-methyl-2,6-dioxo-1-(2-oxopropyl)-2,3-dihydro-1H-purin-7(6H)-yl)propanamide]",IC50,human TRPA1,2 nM
same,Average PWL Post-Treatment,[1]; [3],178.1
same,PWL Change,[1]; [3],85.6 s
same,Average PWL Post-Treatment,[1]; [4],223.6
same,PWL Change,[1]; [4],130.8 s
same,Average PWL Post-Treatment,[1]; [5],247.1
same,PWL Change,[1]; [5],154.3 s
same,Average PWL Post-CFA,"[1]; group 1 mg/kg PO, 25% Cremophor EL, and 66% water",92.5
same,Average PWL Post-CFA,"[1]; group 3 mg/kg PO, 25% Cremophor EL, and 66% water",92.8
same,Average PWL Post-CFA,"[1]; group 10 mg/kg PO, 25% Cremophor EL, and 66% water",92.7
same,Duration (0-2 Minutes) Average,[2]; [6],71.4 s
same,Duration (0-5 Minutes) Average,[2]; [6],164.6 s
same,Duration (0-2 Minutes) Average,[2]; [7],84.5 s
same,Duration (0-5 Minutes) Average,[2]; [7],172.5 s
same,Duration (0-2 Minutes) Average,[2]; [8],81.5 s
same,Duration (0-5 Minutes) Average,[2]; [8],216.9 s
same,Duration (0-2 Minutes) Average,[2]; [9],86.4 s
same,Duration (0-5 Minutes) Average,[2]; [9],198.8 s
same,Duration (0-2 Minutes) Average,[2]; [10],50.1 s
same,Duration (0-5 Minutes) Average,[2]; [10],160.3 s
same,Duration (0-2 Minutes) Average,[2]; [11],87.9 s
same,Duration (0-5 Minutes) Average,[2]; [11],214.6 s
same,Duration (0-2 Minutes) Average,[2]; [12],31.9 s and 52.8 s
same,Duration (0-5 Minutes) Average,[2]; [12],173.1 s and 173.4 s
"Cc1noc(Cn2c(=O)c3c(ncn3[C@@H](C)C(=O)Nc3cncc(-c4cnc(C(F)(F)F)nc4)n3)n(C)c2=O)n1 [Compound 160, (S)-2-(3-methyl-1-((3-methyl-1,2,4-oxadiazol-5-yl)methyl)-2,6-dioxo-2,3-dihydro-1H-purin-7(6H)-yl)-N-(6-(2-(trifluoromethyl)pyrimidin-5-yl)pyrazin-2-yl)propanamide]",IC50,human TRPA1,20 nM
same,Average PWL Post-Treatment,[1]; [13],173.0
same,PWL Change,[1]; [13],64.7 s
same,Average PWL Post-Treatment,[1]; [14],269.6
same,PWL Change,[1]; [14],161.5 s
same,Average PWL Post-Treatment,[1]; [15],253.6
same,PWL Change,[1]; [15],146.2 s
same,Average PWL Post-CFA,"[1]; group 0.3 mg/kg PO, 20% Cremophor EL, and 71% water",108.2
same,Average PWL Post-CFA,"[1]; group 1 mg/kg PO, 20% Cremophor EL, and 71% water",108.1
same,Average PWL Post-CFA,"[1]; group 3 mg/kg PO, 20% Cremophor EL, and 71% water",107.5
same,Duration (0-2 Minutes) Average,[2]; [16],68.6 s
same,Duration (0-5 Minutes) Average,[2]; [16],167.3 s
same,Duration (0-2 Minutes) Average,[2]; [17],78.1 s
same,Duration (0-5 Minutes) Average,[2]; [17],232.0 s
same,Duration (0-2 Minutes) Average,[2]; [18],42.5 s
same,Duration (0-5 Minutes) Average,[2]; [18],150.4 s
